Assay: solubility of the calcium salt in aqueous methanol / methanol
Type: physicochemical

## CC(C)c1nc(N(C)S(C)(=O)=O)nc(-c2ccc(F)cc2)c1/C=C/[C@@H](O)C[C@@H](O)CC(=O)[O-].CC(C)c1nc(N(C)S(C)(=O)=O)nc(-c2ccc(F)cc2)c1/C=C/[C@@H](O)C[C@@H](O)CC(=O)[O-].[Ca+2] [formula (1a), rosuvastatin calcium]
Calcium salt prepared by the present invention (calcium acetate as calcium source)
  solubility in an aqueous methanol: freely soluble
Calcium salt prepared by the prior art process (U.S. Pat. No. 5,260,440; sodium chloride byproducts)
  solubility in an aqueous methanol: poor solubility

— patent publication US8455640B2, “Process for statins and its pharmaceutically acceptable salts thereof” (MSN Laboratories Limited, priority 2006, dated 2013)
